From PubChem BioAssay AID192 (DTP/NCI, 2004)
Several values for one entry are separate records, joined by “and”; a condition that tells them apart may be missing. Identical values can stand only once. Inconclusive results and toxic doses are left out. Numbered stars: 1 amine (or outer) side, 2 acyl side, 3 side chain; on linkers, the order of the positions; unused ones are H or OH. Bridge positions count the residues as written; N and C are the ends. Square brackets hold non-standard residues; d marks the D form. Peptide text beside a SMILES is read from it. I, II: the chains in the order shown. Actinocin(9to1) = Cc1c2oc3c(C)ccc(C(=O)[*:1])c3nc-2c(C(=O)[*:2])c(N)c1=O; NMeV = CN[CH](C(=O)O)C(C)C; Aze = O=C(O)[CH]1CCN1; Sar = CNCC(=O)O

System: BDF1 mice, B16 melanoma ip, median survival T/C
Assay: NCI In Vivo Anticancer Drug Screen. Data for tumor model B16 Melanoma (intraperitoneal) in B6D2F1 (BDF1) mice
Conditions: endpoint: median survival time, higher = longer survival
How it was run: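 Read-out: survival or tumor size, given as treated/control ratio. Controls received vehicle only; animals bore transplantable tumors.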

[1] = dose: 100.0 mg/kg/injection, schedule: Q01DX009 (ip), vehicle: Klucel (hydroxypropylcellulose) (HPC)
[2] = dose: 200.0 mg/kg/injection, schedule: Q01DX009 (ip), vehicle: Klucel (hydroxypropylcellulose) (HPC)
[3] = dose: 50.0 mg/kg/injection, schedule: Q01DX009 (ip), vehicle: Klucel (hydroxypropylcellulose) (HPC)
[4] = dose: 25.0 mg/kg/injection, schedule: Q01DX009 (ip), vehicle: saline

## Cc1c2oc3c(C)ccc(C(=O)NC4C(=O)NC(C(C)C)C(=O)N5CCC5C(=O)N(C)CC(=O)N(C)C(C(C)C)C(=O)OC4C)c3nc-2c(C(=O)NC2C(=O)NC(C(C)C)C(=O)N3CCC3C(=O)N(C)CC(=O)N(C)C(C(C)C)C(=O)OC2C)c(N)c1=O (stereo unspecified) (I: TV[Aze][Sar][NMeV] / II: TV[Aze][Sar][NMeV]; ester I:1-I:C, II:1-II:C; linker I:N-II:N via Actinocin(9to1); configuration not given here)
dose: 0.3 mg/kg/injection, schedule: Q04DX003 (ip), vehicle: saline + alcohol
  T/C: 169 % of control
dose: 0.45 mg/kg/injection, schedule: Q04DX003 (ip), vehicle: saline + alcohol
  T/C: 163 % of control
dose: 100.0 micrograms/kg/injection, schedule: Q01DX009 (ip), vehicle: saline + alcohol
  T/C: 159 % of control
dose: 150.0 micrograms/kg/injection, schedule: Q01DX009 (ip), vehicle: saline + alcohol
  T/C: 161 % of control

## COc1cc([N+](=O)[O-])c2ncccc2c1
[1]
  T/C: 115 % of control
[2]
  T/C: 110 % of control

## COc1cc2cc3c4ccccc4cc[n+]3c(C)c2cc1OC (tested in a mixture with another compound)
dose: 5.0 mg/kg/injection, schedule: Q01DX009 (ip), vehicle: Klucel (hydroxypropylcellulose) (HPC)
  T/C: 99 % of control
dose: 10.0 mg/kg/injection, schedule: Q01DX009 (ip), vehicle: Klucel (hydroxypropylcellulose) (HPC)
  T/C: 99 % of control
dose: 20.0 mg/kg/injection, schedule: Q01DX009 (ip), vehicle: Klucel (hydroxypropylcellulose) (HPC)
  T/C: 95 % of control

## CCOCCN1CCN(CCCN2c3ccccc3Sc3ccc(C(F)(F)F)cc32)CC1
dose: 0.09 mg/kg/injection, schedule: Q01DX009 (ip), vehicle: water
  T/C: 105 % of control
dose: 0.19 mg/kg/injection, schedule: Q01DX009 (ip), vehicle: water
  T/C: 113 % of control
dose: 0.39 mg/kg/injection, schedule: Q01DX009 (ip), vehicle: water
  T/C: 100 % of control

## Cc1cccc(C(N)=S)n1
[3]
  T/C: 110 % of control
[1]
  T/C: 100 % of control

## NC(=S)N/N=C/c1cc(-c2cccc(N)c2)ccn1
dose: 6.25 mg/kg/injection, schedule: Q01DX009 (ip), vehicle: saline with Tween-80
  T/C: 104 % of control and 123 % of control and 124 % of control
dose: 12.5 mg/kg/injection, schedule: Q01DX009 (ip), vehicle: saline with Tween-80
  T/C: 122 % of control
dose: 12.5 mg/kg/injection, schedule: Q01DX009 (ip), vehicle: saline
  T/C: 166 % of control
[4]
  T/C: 156 % of control
dose: 37.5 mg/kg/injection, schedule: Q04DX003 (ip), vehicle: saline
  T/C: 166 % of control
dose: 75.0 mg/kg/injection, schedule: Q01DX009 (ip), vehicle: saline with Tween-80
  T/C: 124 % of control
dose: 75.0 mg/kg/injection, schedule: Q04DX003 (ip), vehicle: saline
  T/C: 156 % of control
dose: 150.0 mg/kg/injection, schedule: Q04DX003 (ip), vehicle: saline
  T/C: 150 % of control

## CCN(CC)Cc1ccccn1
[4]
  T/C: 100 % of control
dose: 50.0 mg/kg/injection, schedule: Q01DX009 (ip), vehicle: saline
  T/C: 97 % of control
dose: 100.0 mg/kg/injection, schedule: Q01DX009 (ip), vehicle: saline
  T/C: 100 % of control

## CN(C)CCCNC(=O)Nc1ccccc1
[1]
  T/C: 100 % of control
[2]
  T/C: 92 % of control

## O=C(O)/C=C/C(=O)Nc1cccc(Oc2ccc([N+](=O)[O-])cc2[N+](=O)[O-])c1
dose: 150.0 mg/kg/injection, schedule: Q01DX009 (ip), vehicle: Klucel (hydroxypropylcellulose) (HPC)
  T/C: 90 % of control
dose: 300.0 mg/kg/injection, schedule: Q01DX009 (ip), vehicle: Klucel (hydroxypropylcellulose) (HPC)
  T/C: 107 % of control

## Cc1cccc(NC(=O)Nc2ccccc2Cl)n1
[3]
  T/C: 90 % of control
[1]
  T/C: 94 % of control
[2]
  T/C: 94 % of control

## Cc1cc(C)nc(NS(=O)(=O)c2ccc(N=Nc3nc4[nH]c(N)nc(=S)c4[nH]3)cc2)n1
dose: 0.19 mg/kg/injection, schedule: Q01DX009 (ip), vehicle: Klucel (hydroxypropylcellulose) (HPC)
  T/C: 115 % of control
dose: 0.39 mg/kg/injection, schedule: Q01DX009 (ip), vehicle: Klucel (hydroxypropylcellulose) (HPC)
  T/C: 111 % of control
dose: 0.78 mg/kg/injection, schedule: Q01DX009 (ip), vehicle: Klucel (hydroxypropylcellulose) (HPC)
  T/C: 105 % of control
dose: 1.56 mg/kg/injection, schedule: Q01DX009 (ip), vehicle: Klucel (hydroxypropylcellulose) (HPC)
  T/C: 102 % of control
